Values quoted from earlier work as cited in US20230000917A1, “TREATMENT OF HEPATITIS B VIRUS (HBV) INFECTION” (UCL BUSINESS LTD, priority 2019, published 2023).

Experiments:
[1] = system: macrophage foam cell formation and atherosclerosis progression; details: oral administration, animal models
[2] = in vivo
[3] = in vivo; remark: listed apart in the source

oral bioavailability [2] | Structure (SMILES) | macrophage foam cell formation and atherosclerosis progression [1] | plasma VLDL-cholesterol [3] | plasma total triglyceride [3]
 | CSc1cc(C)nc(SC)c1NC(=O)CN1CCN(CCSc2nc3ccccc3[nH]2)CC1.Cl.Cl [K604, 4-[2-(1H-Benzimidazol-2-ylthio)ethyl]-N-[6-methyl-2,4-bis(methylthio)-3-pyridinyl]-1-piperazineacetamide dihydrochloride] | promising results |  | 
orally bioavailable | CC(C)c1cc(C(C)C)c(CC(=O)NS(=O)(=O)Oc2c(C(C)C)cccc2C(C)C)c(C(C)C)c1 [Avasimibe] |  | significantly reduce | significantly reduce
